In patent publication US20040092521A1, “Bicyclic-substituted amines as histamine-3 receptor ligands” (priority 2002, published 2004):
Counter-ions that a name gives are not always drawn.

Compound	melting point
C[C@@H]1CCCN1Cc1ccc2cc(-c3ccc(C#N)cc3)ccc2c1 (as salt: hydrochloride) [Example 6, 4-(6-{[(2R)-2-methyl-1-pyrrolidinyl]methyl}-2-naphthyl)benzonitrile]	212.6 to 213.6 °C
C[C@@H]1CCCN1CCc1ccc2cc(Br)ccc2c1 (as salt: HCl) [Example 2, (2R)-1-[2-(6-bromo-2-naphthyl)ethyl]-2-methylpyrrolidine]	247.3 to 250.7 °C
C[C@@H]1CCCN1CCc1ccc2cc(-c3ccc(C(F)(F)F)cc3)ccc2n1 (as salt: hydrochloride) [Example 47, 2-{2-[(2R)-2-methyl-1-pyrrolidinyl]ethyl}-6-[4-(trifluoromethyl)phenyl]quinoline]	143 to 145 °C (dec.)
C[C@@H]1CCCN1CCc1ccc2cc(-c3cccc(C#N)c3)ccc2c1 [Example 7, 3-(6-{2-[(2R)-2-methyl-1-pyrrolidinyl]ethyl}-2-naphthyl)benzonitrile]	228.5 to 231.6 °C
C[C@@H]1CCCN1CCc1ccc2cc(-c3ccc(F)cc3)ccc2n1 (as salt: hydrochloride) [Example 43, 6-(4-fluorophenyl)-2-{2-[(2R)-2-methyl-1-pyrrolidinyl]ethyl}quinoline]	145 °C
COc1ccc(-c2ccc3nc(CCN4CCC[C@H]4C)ccc3c2)cc1 (as salt: hydrochloride) [Example 46, 6-(4-methoxyphenyl)-2-{2-[(2R)-2-methyl-1-pyrrolidinyl]ethyl}quinoline]	165 °C (dec.)
C[C@@H]1CCCN1CCc1ccc2cc(-c3ccc(C#N)cc3)ccc2n1 (as salt: tartrate) [Example 42, 4-(2-{2-[(2R)-2-methyl-1-pyrrolidinyl]ethyl}-6-quinolinyl)benzonitrile]	164 °C
C[C@@H]1CCCN1CCc1ccc2cc(C(=O)c3cccc(F)c3)ccc2n1 (as salt: hydrochloride) [Example 50, (3-fluorophenyl)(2-{2-[(2R)-2-methyl-1-pyrrolidinyl]ethyl}-6-quinolinyl)methanone]	162 to 164 °C (dec.)
C[C@@H]1CCCN1CCc1ccc2cc(-c3cccnc3)ccc2n1 (as salt: hydrochloride) [Example 51, 2-{2-[(2R)-2-methyl-1-pyrrolidinyl]ethyl}-6-(3-pyridinyl)quinoline]	205 to 207 °C
